Experimental data: PubChem BioAssay (NCI)
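Test compounds were applied to cells in 96-well plates for 48 hours at 5 doses. GI50 = concentration required for 50% inhibition of growth. At the TGI there is no net growth.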

Legend:
Test in all cases: inhibition of tumour cell growth, NCI panel, 48 h
OVCAR-8 ovarian = system: OVCAR-8 ovarian
NCI-H226 lung = system: NCI-H226 lung
ACHN renal = system: ACHN renal
HT29 colon = system: HT29 colon
SNB-75 CNS = system: SNB-75 CNS
NCI-H460 lung = system: NCI-H460 lung
RPMI-8226 leukemia = system: RPMI-8226 leukemia
786-0 renal = system: 786-0 renal
CCRF-CEM leukemia = system: CCRF-CEM leukemia
OVCAR-5 ovarian = system: OVCAR-5 ovarian
SK-MEL-2 melanoma = system: SK-MEL-2 melanoma
OVCAR-3 ovarian = system: OVCAR-3 ovarian
MDA-MB-231 breast = system: MDA-MB-231 breast
SF-539 CNS = system: SF-539 CNS
MALME-3M melanoma = system: MALME-3M melanoma
HCT-15 colon = system: HCT-15 colon
SNB-19 CNS = system: SNB-19 CNS
SN12C renal = system: SN12C renal
A549 NSCLC = system: A549 NSCLC
OVCAR-4 ovarian = system: OVCAR-4 ovarian
SK-MEL-5 melanoma = system: SK-MEL-5 melanoma
MOLT-4 leukemia = system: MOLT-4 leukemia
SF-295 CNS = system: SF-295 CNS
CAKI-1 renal = system: CAKI-1 renal
HCC-2998 colon = system: HCC-2998 colon
NCI-H522 lung = system: NCI-H522 lung
MCF7 breast = system: MCF7 breast
NCI/ADR-RES ovarian = system: NCI/ADR-RES ovarian
BT-549 breast = system: BT-549 breast
HS 578T breast = system: HS 578T breast
LOX IMVI melanoma = system: LOX IMVI melanoma
A498 renal = system: A498 renal
DU-145 prostate = system: DU-145 prostate
UACC-62 melanoma = system: UACC-62 melanoma
SK-OV-3 ovarian = system: SK-OV-3 ovarian
UACC-257 melanoma = system: UACC-257 melanoma
HL-60(TB) leukemia = system: HL-60(TB) leukemia
M14 melanoma = system: M14 melanoma
T-47D breast = system: T-47D breast
EKVX NSCLC = system: EKVX NSCLC
SW-620 colon = system: SW-620 colon
IGROV1 ovarian = system: IGROV1 ovarian
K-562 leukemia = system: K-562 leukemia
KM12 colon = system: KM12 colon
UO-31 renal = system: UO-31 renal
U251 CNS = system: U251 CNS
COLO 205 colon = system: COLO 205 colon
SF-268 CNS = system: SF-268 CNS
HOP-62 NSCLC = system: HOP-62 NSCLC
HOP-92 NSCLC = system: HOP-92 NSCLC
PC-3 prostate = system: PC-3 prostate
MDA-MB-435 = system: MDA-MB-435
SR leukemia = system: SR leukemia
SK-MEL-28 melanoma = system: SK-MEL-28 melanoma
TK-10 renal = system: TK-10 renal
RXF 393 renal = system: RXF 393 renal
HCT-116 colon = system: HCT-116 colon
NCI-H23 lung = system: NCI-H23 lung

Structure (SMILES): Cc1cc(F)cc(NS(=O)(=O)c2ccc(-c3cnc(C4CC4)o3)cc2)c1
- GI50 (OVCAR-8 ovarian): 0.735 µM
- TGI (OVCAR-8 ovarian): 14.7 µM
- GI50 (NCI-H226 lung): 0.489 µM
- TGI (NCI-H226 lung): 7.82 µM
- GI50 (ACHN renal): 0.648 µM
- TGI (ACHN renal): 12.8 µM
- GI50 (HT29 colon): 0.105 µM
- TGI (HT29 colon): 12.2 µM
- GI50 (SNB-75 CNS): 0.159 µM
- TGI (SNB-75 CNS): 1.57 µM
- GI50 (NCI-H460 lung): 0.142 µM
- TGI (NCI-H460 lung): 2.03 µM
- GI50 (RPMI-8226 leukemia): 0.179 µM
- TGI (RPMI-8226 leukemia): 1.87 µM
- GI50 (786-0 renal): 0.752 µM
- TGI (786-0 renal): 16.4 µM
- GI50 (CCRF-CEM leukemia): 0.199 µM
- TGI (CCRF-CEM leukemia): 13.5 µM
- GI50 (OVCAR-5 ovarian): 0.926 µM
- TGI (OVCAR-5 ovarian): 15.5 µM
- GI50 (SK-MEL-2 melanoma): 1.03 µM
- TGI (SK-MEL-2 melanoma): 15.5 µM
- GI50 (OVCAR-3 ovarian): 0.0523 µM
- TGI (OVCAR-3 ovarian): 11 µM
- GI50 (MDA-MB-231 breast): 0.827 µM
- TGI (MDA-MB-231 breast): 13.6 µM
- GI50 (SF-539 CNS): 0.271 µM
- TGI (SF-539 CNS): 2.99 µM
- GI50 (MALME-3M melanoma): 0.837 µM
- TGI (MALME-3M melanoma): 20.9 µM
- GI50 (HCT-15 colon): 0.0836 µM
- TGI (HCT-15 colon): 11.4 µM
- GI50 (SNB-19 CNS): 0.441 µM
- TGI (SNB-19 CNS): 15 µM
- GI50 (SN12C renal): 0.773 µM
- TGI (SN12C renal): 11.6 µM
- GI50 (A549 NSCLC): 0.662 µM
- TGI (A549 NSCLC): 14.3 µM
- GI50 (OVCAR-4 ovarian): 0.967 µM
- TGI (OVCAR-4 ovarian): 15.2 µM
- GI50 (SK-MEL-5 melanoma): 0.266 µM
- TGI (SK-MEL-5 melanoma): 1.89 µM
- GI50 (MOLT-4 leukemia): 0.366 µM
- TGI (MOLT-4 leukemia): 15.4 µM
- GI50 (SF-295 CNS): 0.127 µM
- TGI (SF-295 CNS): 3.49 µM
- GI50 (CAKI-1 renal): 0.0869 µM
- TGI (CAKI-1 renal): 13.1 µM
- GI50 (HCC-2998 colon): 0.739 µM
- TGI (HCC-2998 colon): 10.7 µM
- GI50 (NCI-H522 lung): 0.372 µM
- TGI (NCI-H522 lung): 10.8 µM
- GI50 (MCF7 breast): 0.0806 µM
- TGI (MCF7 breast): 12.1 µM
- GI50 (NCI/ADR-RES ovarian): 0.12 µM
- TGI (NCI/ADR-RES ovarian): 5.29 µM
- GI50 (BT-549 breast): 1.01 µM
- TGI (BT-549 breast): 9.82 µM
- GI50 (HS 578T breast): 0.303 µM
- TGI (HS 578T breast): 7.85 µM
- GI50 (LOX IMVI melanoma): 0.301 µM
- TGI (LOX IMVI melanoma): 12.7 µM
- GI50 (A498 renal): 0.0762 µM
- TGI (A498 renal): 1.01 µM
- GI50 (DU-145 prostate): 0.421 µM
- TGI (DU-145 prostate): 13.8 µM
- GI50 (UACC-62 melanoma): 0.122 µM
- TGI (UACC-62 melanoma): 8.86 µM
- GI50 (SK-OV-3 ovarian): 0.748 µM
- TGI (SK-OV-3 ovarian): 15.4 µM
- GI50 (UACC-257 melanoma): 1.77 µM
- TGI (UACC-257 melanoma): 12.1 µM
- GI50 (HL-60(TB) leukemia): 0.0993 µM
- TGI (HL-60(TB) leukemia): 0.769 µM
- GI50 (M14 melanoma): 0.285 µM
- TGI (M14 melanoma): 13 µM
- GI50 (T-47D breast): 0.268 µM
- TGI (T-47D breast): 21.8 µM
- GI50 (EKVX NSCLC): 0.591 µM
- TGI (EKVX NSCLC): 13.9 µM
- GI50 (SW-620 colon): 0.0988 µM
- TGI (SW-620 colon): 14.4 µM
- GI50 (IGROV1 ovarian): 0.252 µM
- TGI (IGROV1 ovarian): 13.6 µM
- GI50 (K-562 leukemia): 0.0494 µM
- TGI (K-562 leukemia): 12.3 µM
- GI50 (KM12 colon): 0.183 µM
- TGI (KM12 colon): 11.6 µM
- GI50 (UO-31 renal): 0.848 µM
- TGI (UO-31 renal): 12.6 µM
- GI50 (U251 CNS): 0.451 µM
- TGI (U251 CNS): 14.5 µM
- GI50 (COLO 205 colon): 0.246 µM
- TGI (COLO 205 colon): 1.76 µM
- GI50 (SF-268 CNS): 1.5 µM
- TGI (SF-268 CNS): 13.2 µM
- GI50 (HOP-62 NSCLC): 0.362 µM
- TGI (HOP-62 NSCLC): 14.6 µM
- GI50 (HOP-92 NSCLC): 0.422 µM
- TGI (HOP-92 NSCLC): 5.04 µM
- GI50 (PC-3 prostate): 0.342 µM
- TGI (PC-3 prostate): 12.3 µM
- GI50 (MDA-MB-435): 0.0314 µM
- TGI (MDA-MB-435): 0.145 µM
- GI50 (SR leukemia): 0.0464 µM
- TGI (SR leukemia): 5.91 µM
- GI50 (SK-MEL-28 melanoma): 1.89 µM
- TGI (SK-MEL-28 melanoma): 16.6 µM
- GI50 (TK-10 renal): 3.17 µM
- TGI (TK-10 renal): 16.7 µM
- GI50 (RXF 393 renal): 0.161 µM
- TGI (RXF 393 renal): 0.603 µM
- GI50 (HCT-116 colon): 0.225 µM
- TGI (HCT-116 colon): 10.9 µM
- GI50 (NCI-H23 lung): 0.585 µM
- TGI (NCI-H23 lung): 12.6 µM
